PMC11502375, “Cytochrome P450 VvCYP76F14 dominates the production of wine bouquet precursors in wine grapes” (Frontiers in Plant Science, 2024)

Columns and labels:
[1] = target: T1, VvCYP76F14 ('Marselan', Aromatic type) (Vitis vinifera, UniProt A0A1B2ZBX8); assay: substrate depletion by HPLC-HRMS; format: biochemical; settings: 1 mM NADPH; ATR1 reductase; pH 5.0; 25 °C; 1 h
T1 construct: 499 residues; natural allele, versus Yanniang No.2: N46S/N111K/R175Q/L222V/M264I/S286N/L298V/K325T/E378G/T380A/E383D/T386A; MBP fusion in E. coli, MBP cut off with TEV protease; reductase partner Arabidopsis ATR1
T1 sequence (A0A1B2ZBX8 entry or part of it): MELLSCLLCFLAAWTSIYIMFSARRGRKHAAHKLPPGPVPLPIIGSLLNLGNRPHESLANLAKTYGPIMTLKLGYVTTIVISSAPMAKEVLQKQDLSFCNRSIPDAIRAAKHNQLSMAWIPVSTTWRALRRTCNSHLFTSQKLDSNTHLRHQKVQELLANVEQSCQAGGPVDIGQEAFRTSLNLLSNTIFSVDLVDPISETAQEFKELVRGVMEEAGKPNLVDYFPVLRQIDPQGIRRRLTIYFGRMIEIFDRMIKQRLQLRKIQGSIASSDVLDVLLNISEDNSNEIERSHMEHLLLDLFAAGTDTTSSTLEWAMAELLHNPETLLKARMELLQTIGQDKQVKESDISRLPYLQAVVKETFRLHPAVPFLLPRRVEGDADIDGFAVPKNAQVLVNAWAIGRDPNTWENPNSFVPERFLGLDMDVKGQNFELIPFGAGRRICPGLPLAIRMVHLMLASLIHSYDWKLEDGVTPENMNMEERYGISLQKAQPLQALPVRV

[2] = target: VvCYP76F14 ('Yanniang No.2', Full-Bodied type) (Vitis vinifera, UniProt A0A1B2ZBX8, L351V, form not given); settings: 1 mM NADPH; ATR1 reductase (VvCYP76F14:ATR1 2:1); 100 mM Na+/K+ phosphate pH 5.0; 25 °C; 1 h
Chain of VvCYP76F14 ('Yanniang No.2', Full-Bodied type) (Vitis vinifera, UniProt A0A1B2ZBX8, L351V, form not given) (A0A1B2ZBX8 entry or part of it L351V, form open): as the sequence (A0A1B2ZBX8 entry or part of it) above, with L351V counted along it

[3] = target: VvCYP76F14 ('Yanniang No.2', Full-Bodied type) (Vitis vinifera, UniProt A0A1B2ZBX8, E431G, form not given); settings: 1 mM NADPH; ATR1 reductase (VvCYP76F14:ATR1 2:1); 100 mM Na+/K+ phosphate pH 5.0; 25 °C; 1 h
Chain of VvCYP76F14 ('Yanniang No.2', Full-Bodied type) (Vitis vinifera, UniProt A0A1B2ZBX8, E431G, form not given) (A0A1B2ZBX8 entry or part of it E431G, form open): as the sequence (A0A1B2ZBX8 entry or part of it) above, with E431G counted along it

[4] = target: VvCYP76F14 ('Yanniang No.2', Full-Bodied type) (Vitis vinifera, UniProt A0A1B2ZBX8, I173L, form not given); settings: 1 mM NADPH; ATR1 reductase (VvCYP76F14:ATR1 2:1); 100 mM Na+/K+ phosphate pH 5.0; 25 °C; 1 h
Chain of VvCYP76F14 ('Yanniang No.2', Full-Bodied type) (Vitis vinifera, UniProt A0A1B2ZBX8, I173L, form not given) (A0A1B2ZBX8 entry or part of it I173L, form open): as the sequence (A0A1B2ZBX8 entry or part of it) above, with I173L counted along it

[5] = target: VvCYP76F14 ('Yanniang No.2', Full-Bodied type) (Vitis vinifera, UniProt A0A1B2ZBX8); settings: 1 mM NADPH; ATR1 reductase (VvCYP76F14:ATR1 2:1); 100 mM Na+/K+ phosphate pH 5.0; 25 °C; 1 h
Chain of VvCYP76F14 ('Yanniang No.2', Full-Bodied type) (Vitis vinifera, UniProt A0A1B2ZBX8) (A0A1B2ZBX8 entry or part of it): as the sequence (A0A1B2ZBX8 entry or part of it) above

Km [2] [µM]	Km [3] [µM]	Km [4] [µM]	Km [5] [µM]	SMILES	specific activity [1]
67.6 ± 6.94	144 ± 15.6	151 ± 14.6	66.2 ± 5.63	C=CC(C)(O)CCC=C(C)C (centres unmarked) [linalool]	All three VvCYP76F14s demonstrated catalytic activity in reactions utilizing linalool (hydroxylation)
30.6 ± 2.85	65 ± 6.98	76.7 ± 7.22	29.1 ± 2.66	C=CC(C)(O)CC/C=C(\C)CO (centres unmarked) [(E)-8-hydroxylinalool]	(E)-8-hydroxylinalool (dehydrogenation), and (E)-8-oxolinalool (carboxylation) as substrates
41.9 ± 5.24	88.5 ± 9.85	90.8 ± 12.2	41.4 ± 3.93	C=CC(C)(O)CC/C=C(\C)C=O (centres unmarked) [(E)-8-oxolinalool]	–
